Values after ≈ are worked out from the molar mass of the structure shown.
What was measured:
GL261 cells = test: Cell growth inhibition assay (MTT); format: cell-based, murine; settings: Mus musculus, GL261, 72 h after drug exposure
Experimental: (§1) The cell lines were obtained from ATTC (Manassas, VA, USA). HeLa (human cervix epithelioid carcinoma), MCF7 (human breast adenocarcinoma), HepG2 (human hepatocellular carcinoma), U87 MG (human glioblastoma), T98G (human glioblastoma), GL261 (murine glioma), LNCaP (human prostate cancer), PC-3 (human prostate cancer), and HEK-293 (human embryonic kidney) were grown in Dulbecco’s modified Eagle’s medium (DMEM, Gibco, Waltham, MA, USA), supplemented with 10% (v/v) heat-inactivated fetal bovine serum (HIFBS, Sigma-Aldrich, St. Louis, MO, USA)), 2 mM L-glutamine, 100 μg/mL streptomycin, and 100 units/mL penicillin (Gibco, Waltham, MA, USA) at 37 °C in saturated humidity atmosphere containing 95% air and 5% CO2. Cell line HT-29 (human colon carcinoma) was grown in Roswell Park Memorial Institute (RPMI) 1640 medium (Gibco, Whaltman, MA, USA) supplemented with 10% HIFBS, 100 μg/mL streptomycin, and 100 units/mL penicillin (Gibco, Whaltman, MA, USA) at 37 °C in humidified 95% air and 5% CO2 atmosphere. MycoAlert kit (Lonza, Norwest, Australia) was used to routinely check the presence of mycoplasma, and only mycoplasma-free cells were employed in the experiments.
(§2) Cells were plated in 96-well plates (100 µL/well) at the following concentrations: 30,000 cells/mL (HepG2, U87 MG, T98G, C6, LNCaP, PC3, and HT-29 cells) or 15,000 cells/mL (HeLa and MCF-7 cells). Previous experiments were performed to choose the optimal cell concentration (70–80% confluence) and avoid the formation of cell aggregates. Cells were incubated in complete DMEM or RPMI 1640 medium (see above) at 37 °C and 5% CO2 atmosphere for 24 h to allow for cell attachment to the plate. Then, every compound was added (10 µL/well) to a final concentration of 10 µM. Non-treated cells were used as negative controls. The antiproliferative activity of compounds was measured 72 h after the treatments using the MTT reagent (3-[4,5-dimethylthiazol-2-yl]-2,5-diphenyltetrazolium bromide), (MTT Thiazolyl Blue Tetrazolium Bromide, Sigma-Aldrich, St. Louis, MO, USA) dissolved in PBS at 5 mg/mL. Compounds showing antiproliferative effects at 10 µM were selected to determine their IC50 value. For that purpose, compounds were used at different concentrations ranging from 10^−10 to 10^−2 M. Measurements were performed in triplicate, and each experiment was repeated three times. The IC50 value was determined for every compound using Origin software (OriginLab, Washington, USA). To study the sensitivity to MDR efflux pumps of compounds, the IC50 values were determined by following the same procedure but in the presence of verapamil (final concentration of 10 µM).

HEK-293 cells = test: Cell growth inhibition assay (MTT), non-tumorigenic cells; format: cell-based, human; settings: Homo sapiens, HEK293, 72 h after drug exposure, non-tumorigenic cell line
Experimental: as §1, §2

bovine brain tubulin = test: Tubulin polymerization inhibition (turbidimetry); format: biochemical; settings: for IC50: concentration inhibiting 50% of microtubular protein polymerization in vitro, read-out: TPI IC50; for % TPI: compounds tested at 10 µM, with respect to the negative control; for Tubulin polymerization inhibition (in words): 10 µM
Experimental: Microtubular protein was isolated from calf brain following the modified Shelanski method, based on temperature-dependent assembly/disassembly of tubulin [45]. The protein was stored at −80 °C, and its concentration was determined using the Bradford method before each use. Tubulin polymerization, which occurs when heating a buffered tubulin sample from 4 °C to 37 °C, is accompanied by an increase in the absorbance (at 450 nm) of the sample that was monitored by a Helios α spectrophotometer. […] Then, the temperature was adjusted to 4 °C, and the temperature being shifted to 37 °C allowed for the assembly process of tubulin. The turbidity caused by tubulin polymerization was measured by the increased absorbance at 450 nm. The increase in absorbance obtained for the control sample (without the ligand), which we considered to be 100% tubulin polymerization (0% inhibition), compared with the increase in absorbance determined for the sample containing ligands yielded the degree of tubulin polymerization inhibition (TPI), which is expressed as a percentage value. For the compounds displaying TPI values over 50% at 10 µM, the IC50 value for TPI was calculated. Measurements were performed in triplicate in two independent experiments using microtubular protein from different preparations.

MCF7 cells = test: Cell growth inhibition assay (MTT); format: cell-based, human; settings: Homo sapiens, MCF7; MTT, 72 h after drug exposure
Experimental: as §1, §2

HT-29 cells [1] = test: Cell growth inhibition assay (MTT); format: cell-based, human; settings: Homo sapiens, HT-29, 72 h after drug exposure
Experimental: as §1, §2

T98G cells = test: Cell growth inhibition assay (MTT); format: cell-based, human; settings: Homo sapiens, T98G, 72 h after drug exposure
Experimental: as §1, §2

HeLa cells = test: Cell growth inhibition assay (MTT); format: cell-based, human; settings: Homo sapiens, HeLa, 72 h after drug exposure
Experimental: as §1, §2

PC-3 cells = test: Cell growth inhibition assay (MTT); format: cell-based, human; settings: Homo sapiens, PC-3, 72 h after drug exposure
Experimental: as §1, §2

HepG2 cells = test: Cell growth inhibition assay (MTT); format: cell-based, human; settings: Homo sapiens, HepG2, 72 h after drug exposure
Experimental: as §1, §2

LNCaP cells = test: Cell growth inhibition assay (MTT); format: cell-based, human; settings: Homo sapiens, LNCaP, 72 h after drug exposure
Experimental: as §1, §2

U87MG cells = test: Cell growth inhibition assay (MTT); format: cell-based, human; settings: Homo sapiens, U-87 MG; MTT, 72 h after drug exposure
Experimental: as §1, §2

HT-29 cells [2] = test: Cell growth inhibition (MTT) in the presence of 10 µM verapamil (sensitivity to MDR efflux pumps); format: cell-based, human; settings: 10 µM verapamil (P-gp/MDR1 inhibitor)
Experimental: as §2

[3] = Aqueous solubility, shake-flask method; format: physicochemical; settings: pH 7.0 buffer, pH 7, aqueous buffer, thermodynamic from solid, shaking flask, buffered media at pH 7.0, mean of three
Experimental: The aqueous solubility of compounds was measured in a Helios Alfa Spectrophotometer. Calibration lines at the maximum wavelength of absorbance were determined for each compound. Then, following the shake-flask method, a suspension of 5 mg of each compound in 500 µL in pH 7.0 buffer was stirred for 72 h at room temperature. The mixture was then filtrated over a […] filter to remove the insoluble fraction. The concentration of the compound in the resulting saturated solution was determined via UV absorbance measurement and interpolation in the calibration line. The aqueous solubility values are given as the average of three independent measurements.

SMILES	IC50 (bovine brain tubulin) [µM]	IC50 (MCF7 cells) [µM]	IC50 (HT-29 cells [1]) [µM]	IC50 (HeLa cells) [µM]	IC50 (PC-3 cells) [µM]	IC50 (HepG2 cells) [µM]	IC50 (LNCaP cells) [µM]	IC50 (U87MG cells) [µM]	IC50 (HT-29 cells [2]) [µM]	solubility at 72 h [3] [µg/mL]	IC50 (GL261 cells) [µM]	IC50 (HEK-293 cells) [µM]	IC50 (T98G cells) [µM]	% TPI (bovine brain tubulin) [%]	Tubulin polymerization inhibition (in words) (bovine brain tubulin)
COc1ccc2nc(NCc3ccccc3)sc2c1 [Compound 5, N-benzyl-6-methoxybenzo[d]thiazol-2-amine]	> 10	6.31	> 10	4.36	> 10	5.78	5.97	8.31	> 10	5 (≈ 18.5 µM)	7.25	> 10	> 10	0	–
COc1ccc2nc(N(C=O)Cc3ccccc3)sc2c1 [Compound 17, N-benzyl-N-(6-methoxybenzo[d]thiazol-2-yl)formamide]	> 10	5.02	> 10	3.4	> 10	5.55	4.01	5.27	> 10	12 (≈ 40.2 µM)	6.41	> 10	> 10	4	–
COc1ccc2nc(N(Cc3ccccc3)C(C)=O)sc2c1 [Compound 23, N-benzyl-N-(6-methoxybenzo[d]thiazol-2-yl)acetamide]	> 10	6.3	> 10	3.9	> 10	4.29	4.95	7.51	> 10	13 (≈ 41.6 µM)	6.33	> 10	> 10	3	–
COc1ccc2nc(N(Cc3[nH]cnc3C)C(C)=O)sc2c1 [Compound 22, N-(6-methoxybenzo[d]thiazol-2-yl)-N-((4-methyl-1H-imidazol-5-yl)methyl)acetamide]	> 10	> 10	> 10	> 10	> 10	> 10	> 10	> 10	> 10	171 (≈ 540 µM)	> 10	> 10	> 10	0	not able to inhibit tubulin polymerization
COc1ccc2nc(N(C=O)Cc3ccc4ccccc4c3)sc2c1 [Compound 18, N-(6-methoxybenzo[d]thiazol-2-yl)-N-(naphthalen-2-ylmethyl)formamide]	> 10	> 10	> 10	> 10	> 10	> 10	> 10	> 10	> 10	< 9	> 10	> 10	> 10	0	not able to inhibit tubulin polymerization
COc1ccc2nc(N(Cc3ccc4ccccc4c3)C(C)=O)sc2c1 [Compound 24, N-(6-methoxybenzo[d]thiazol-2-yl)-N-(naphthalen-2-ylmethyl)acetamide]	> 10	> 10	> 10	> 10	> 10	> 10	> 10	> 10	> 10	< 9	> 10	> 10	> 10	0	not able to inhibit tubulin polymerization
COc1ccc2nc(NCc3ccc4ccccc4c3)sc2c1 [Compound 6, 6-methoxy-N-(naphthalen-2-ylmethyl)benzo[d]thiazol-2-amine]	> 10	4.23	> 10	3.71	> 10	4.51	4.32	6.54	> 10	–	6.25	> 10	> 10	7	not able to inhibit tubulin polymerization

The next compounds have a lower IC50 (MCF7 cells) than those just listed; values first:

IC50 (bovine brain tubulin) [µM]	IC50 (MCF7 cells) [µM]	IC50 (HT-29 cells [1]) [µM]	IC50 (HeLa cells) [µM]	IC50 (PC-3 cells) [µM]	IC50 (HepG2 cells) [µM]	IC50 (LNCaP cells) [µM]	IC50 (U87MG cells) [µM]	IC50 (HT-29 cells [2]) [µM]	solubility at 72 h [3] [µg/mL]	SMILES	IC50 (GL261 cells) [µM]	IC50 (HEK-293 cells) [µM]	IC50 (T98G cells) [µM]	% TPI (bovine brain tubulin) [%]	Tubulin polymerization inhibition (in words) (bovine brain tubulin)
4.4	0.18	0.213	0.388	0.422	0.327	0.325	0.375	–	–	COc1ccc(S(=O)(=O)Nc2cccnc2Nc2ccc(O)cc2)cc1 [ABT-751, reference compound]	0.309	1.23	0.421	–	–
> 10	2.04	> 10	2.71	> 10	2.45	2.37	2.91	> 10	16 (≈ 46.9 µM)	CCNC(=O)N(Cc1ccccc1)c1nc2ccc(OC)cc2s1 [Compound 11, 1-benzyl-3-ethyl-1-(6-methoxybenzo[d]thiazol-2-yl)urea]	2.93	> 10	> 10	6	–
> 10	1.97	2.23	1.22	2.63	1.49	1.81	1.27	2.55	90 (≈ 287 µM)	COc1ccc2nc(N(Cc3ccncc3)C(C)=O)sc2c1 [Compound 21, N-(6-methoxybenzo[d]thiazol-2-yl)-N-(pyridin-4-ylmethyl)acetamide]	1.59	> 10	2.3	41	–
–	0.013	0.307	0.051	0.02	0.055	0.01	0.022	–	–	CC(=O)O[C@@]12CO[C@@H]1C[C@H](O)[C@@]1(C)C(=O)[C@H](O)C3=C(C)[C@@H](OC(=O)[C@H](O)[C@@H](NC(=O)OC(C)(C)C)c4ccccc4)C[C@@](O)([C@@H](OC(=O)c4ccccc4)[C@H]21)C3(C)C [DTX, docetaxel, reference compound]	0.035	1.55	0.059	–	–

Reference: paper PMC10301603, “Potent and Selective Benzothiazole-Based Antimitotics with Improved Water Solubility: Design, Synthesis, and Evaluation as Novel Anticancer Agents” (Pharmaceutics, 2023)
